Values after ≈ are worked out from the molar mass of the structure shown.
What was measured:
A549 = assay: Cytotoxicity against human A549 cells by CCK8 assay; type: functional, cell-based
Klebsiella pneumoniae = assay: Antibacterial activity against Klebsiella pneumoniae by resazurin dye based microdilution method; type: functional
Staphylococcus aureus [1] = assay: Antibacterial activity against Staphylococcus aureus ATCC 29213 by resazurin dye based microdilution method; type: functional
Caco-2 = assay: Cytotoxicity against human Caco2 cells by CCK8 assay; type: functional, cell-based
Escherichia coli = assay: Antibacterial activity against Escherichia coli by resazurin dye based microdilution method; type: functional
Staphylococcus aureus [2] = assay: Antibacterial activity against Methicillin resistant Staphylococcus aureus by resazurin dye based microdilution method; type: functional
PC-3M = assay: Cytotoxicity against human PC3M cells after 72 hrs by MTT assay; type: functional, cell-based

SMILES	IC50 (A549)	MIC (Klebsiella pneumoniae)	MIC (Staphylococcus aureus [1])	IC50 (Caco-2)	MIC (Escherichia coli)	MIC (Staphylococcus aureus [2])	IC50 (PC-3M)
CN(C=O)C1=C2C(=CSS2(=O)=O)NC1=O	> 64000 nM	64 µg/mL (≈ 260 µM)	8 µg/mL (≈ 32.5 µM)	> 64000 nM	32 µg/mL (≈ 130 µM)	8 µg/mL (≈ 32.5 µM)	–
CN(C=O)c1c2sscc-2[nH]c1=O	1340 nM	0.5 µg/mL (≈ 2.33 µM)	0.5 µg/mL (≈ 2.33 µM)	570 nM	0.5 µg/mL (≈ 2.33 µM)	0.5 µg/mL (≈ 2.33 µM)	1700 nM
O=CNc1c2sscc-2[nH]c1=O	–	1 µg/mL (≈ 4.99 µM)	4 µg/mL (≈ 20 µM)	–	1 µg/mL (≈ 4.99 µM)	2 µg/mL (≈ 9.99 µM)	–
CN(C=O)C1=C2SCSC=C2NC1=O	> 64000 nM	> 64 µg/mL	> 64 µg/mL	> 64000 nM	> 64 µg/mL	> 64 µg/mL	–
CC(=O)NC[C@H]1CN(c2ccc(N3CCOCC3)c(F)c2)C(=O)O1 [LINEZOLID]	–	> 64 µg/mL	1 µg/mL (≈ 2.96 µM)	–	> 64 µg/mL	1 µg/mL (≈ 2.96 µM)	–
